# From the supplement of paper PMC10307832
# Columns and labels:
# Assay in all cases: relative viability (nuclei count vs DMSO), 5 days (fraction); higher = more cells survive
# Bleomycin + AZD7762 = compound: CC1=C(N=C(N=C1N)[C@H](CC(=O)N)NC[C@@H](C(=O)N)N)C(=O)N[C@@H]([C@H](C2=CN=CN2)OC3C(C(C(C(O3)CO)O)O)OC4C(C(C(C(O4)CO)O)OC(=O)N)O)C(=O)N[C@H](C)[C@H]([C@H](C)C(=O)N[C@@H]([C@@H](C)O)C(=O)NCCC5=NC(=CS5)C6=NC(=CS6)C(=O)NCCC[S+](C)C)O [Bleomycin] + NC(=O)Nc1cc(-c2cccc(F)c2)sc1C(=O)N[C@H]1CCCNC1 [AZD7762] (partner 0.2 µM); details: main component drawn
# How it was run: (§1)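 Values are medians from duplicate plates. Each reflects relative viability, defined as the nuclei count of treated wells over that of vehicle wells. Lung cancer cell lines in 1536-well plates were pin-tool dosed one day after seeding with one drug alone or with a fixed anchor-drug dose plus five library-drug doses (not always all listed) in √10 steps, then fixed, stained and imaged at 4× after 5 days.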
# Bleomycin + Tozasertib = compound: CC1=C(N=C(N=C1N)[C@H](CC(=O)N)NC[C@@H](C(=O)N)N)C(=O)N[C@@H]([C@H](C2=CN=CN2)OC3C(C(C(C(O3)CO)O)O)OC4C(C(C(C(O4)CO)O)OC(=O)N)O)C(=O)N[C@H](C)[C@H]([C@H](C)C(=O)N[C@@H]([C@@H](C)O)C(=O)NCCC5=NC(=CS5)C6=NC(=CS6)C(=O)NCCC[S+](C)C)O [Bleomycin] + Cc1cc(Nc2cc(N3CCN(C)CC3)nc(Sc3ccc(NC(=O)C4CC4)cc3)n2)n[nH]1 [Tozasertib] (partner 0.1 µM); details: main component drawn
# How it was run: as §1
# Bleomycin + Pemetrexed = compound: CC1=C(N=C(N=C1N)[C@H](CC(=O)N)NC[C@@H](C(=O)N)N)C(=O)N[C@@H]([C@H](C2=CN=CN2)OC3C(C(C(C(O3)CO)O)O)OC4C(C(C(C(O4)CO)O)OC(=O)N)O)C(=O)N[C@H](C)[C@H]([C@H](C)C(=O)N[C@@H]([C@@H](C)O)C(=O)NCCC5=NC(=CS5)C6=NC(=CS6)C(=O)NCCC[S+](C)C)O [Bleomycin] + Nc1nc2[nH]cc(CCc3ccc(C(=O)N[C@@H](CCC(=O)O)C(=O)O)cc3)c2c(=O)[nH]1 [Pemetrexed] (partner 0.2 µM); details: main component drawn
# How it was run: as §1
# Etoposide + Phenformin = compound: COc1cc([C@@H]2c3cc4c(cc3[C@@H](O[C@@H]3O[C@@H]5CO[C@@H](C)O[C@H]5[C@H](O)[C@H]3O)[C@H]3COC(=O)[C@H]23)OCO4)cc(OC)c1O [Etoposide] + N=C(N)NC(=N)NCCc1ccccc1 [Phenformin] (partner 250 µM)
# How it was run: as §1
Cell Line,relative viability (Bleomycin + AZD7762; first compound 0.01 µM),relative viability (Bleomycin + AZD7762; first compound 0.03162 µM),relative viability (Bleomycin + AZD7762; first compound 0.1 µM),relative viability (Bleomycin + AZD7762; first compound 0.3162 µM),relative viability (Bleomycin + AZD7762; first compound 1 µM),relative viability (Bleomycin + Tozasertib; first compound 0.01 µM),relative viability (Bleomycin + Tozasertib; first compound 0.03162 µM),relative viability (Bleomycin + Tozasertib; first compound 0.1 µM),relative viability (Bleomycin + Tozasertib; first compound 0.3162 µM),relative viability (Bleomycin + Tozasertib; first compound 1 µM),relative viability (Bleomycin + Pemetrexed; first compound 0.01 µM),relative viability (Bleomycin + Pemetrexed; first compound 0.03162 µM),relative viability (Bleomycin + Pemetrexed; first compound 0.1 µM),relative viability (Bleomycin + Pemetrexed; first compound 0.3162 µM),relative viability (Bleomycin + Pemetrexed; first compound 1 µM),relative viability (Etoposide + Phenformin; first compound 0.01 µM),relative viability (Etoposide + Phenformin; first compound 0.03162 µM),relative viability (Etoposide + Phenformin; first compound 0.1 µM),relative viability (Etoposide + Phenformin; first compound 0.3162 µM),relative viability (Etoposide + Phenformin; first compound 1 µM)
201T,0.487,0.543,0.438,0.422,0.334,0.874,0.943,0.894,0.642,0.548,0.332,0.283,0.303,0.281,0.271,0.45,0.51,0.381,0.368,0.322
A549,,,,,,,,,,,,,,,,0.2,0.121,0.116,0.0719,0.0368
A-427,0.7,0.748,0.542,0.353,0.241,0.201,0.168,0.223,0.126,0.159,0.875,0.917,0.868,0.432,0.288,0.362,0.317,0.258,0.213,0.143
ABC-1,0.748,1,0.845,0.573,0.34,0.199,0.209,0.197,0.178,0.198,,,,,,0.239,0.244,0.241,0.201,0.171
BEN,0.735,0.736,0.66,0.534,0.606,0.487,0.519,0.452,0.431,0.475,0.809,0.757,0.723,0.616,0.679,0.249,0.266,,0.264,0.289
CAL-12T,0.497,0.603,0.436,0.289,0.24,0.23,0.249,0.179,0.179,0.208,0.729,0.482,0.31,0.186,0.156,0.594,0.612,0.586,0.409,0.221
COR-L23,,,,,,0.169,0.156,0.128,0.102,0.104,0.191,0.203,0.193,0.153,0.146,0.394,0.479,0.434,0.287,0.155
COR-L 105,,,,,,0.31,0.337,0.33,0.325,0.279,0.949,1.06,0.971,0.468,0.573,0.664,0.53,0.405,0.444,0.39
ChaGo-K-1,0.785,0.824,0.808,0.692,0.504,0.221,0.214,0.23,0.164,0.192,0.267,0.251,0.245,0.261,0.24,0.423,0.546,0.471,0.282,0.169
EKVX,0.607,0.598,0.544,0.538,0.237,0.434,0.413,0.365,0.191,0.204,0.36,0.317,0.315,0.285,0.2,0.262,0.271,0.196,0.254,0.178
EMC-BAC-2,0.96,1.05,1.08,0.607,0.415,0.2,0.278,0.246,0.22,0.178,0.416,0.4,0.419,0.476,0.324,0.424,0.483,0.309,0.24,0.197
EPLC-272H,0.208,0.192,0.145,0.114,0.112,0.232,0.243,0.191,0.127,0.173,0.294,0.198,0.146,0.121,0.131,0.281,0.308,0.267,0.263,0.226
H3255,0.905,0.819,0.713,0.55,0.401,0.543,0.489,0.622,0.427,0.278,0.608,0.538,0.507,0.479,0.405,0.35,0.404,0.353,0.322,0.305
HARA,0.281,0.299,0.306,0.226,0.244,0.0994,0.118,0.107,0.1,0.081,0.219,0.228,0.237,0.169,0.217,0.507,0.407,0.504,0.366,0.178
HCC-15,1.07,1.03,1.13,0.579,0.599,0.308,0.343,0.303,0.148,0.153,0.22,0.193,0.233,0.193,0.154,0.496,0.526,0.429,0.152,0.132
HCC-44,0.955,1,0.965,0.646,0.573,0.273,0.312,0.302,0.19,0.137,0.625,0.666,0.586,0.526,0.401,0.215,0.156,0.134,0.198,0.112
